From patent US20200131669A1, “CYCLIC PEPTIDE COMPOUND HAVING HIGH MEMBRANE PERMEABILITY, AND LIBRARY CONTAINING SAME” (Chugai Seiyaku Kabushiki Kaisha, priority 2017, published 2020)
Starred links: 1 amine or outer side, 2 acyl side, 3 side chain; linkers in the order of their positions; H or OH if unused. Positions of bridges follow the written chain, without caps; N, C: chain ends. Non-standard residues stand in square brackets, D forms with d. Residues, ends and D or L forms follow the SMILES beside them. *: point of attachment. Phe(4-CF3) = N[C@@H](Cc1ccc(C(F)(F)F)cc1)C(=O)O; 3Pal(6-NMe2) = CN(C)c1ccc(C[C@H](N)C(=O)O)cn1; NMePhe(3-Cl) = CN[C@@H](Cc1cccc(Cl)c1)C(=O)O; Tyr(3-F) = N[C@@H](Cc1ccc(O)c(F)c1)C(=O)O; X9 = O=C(CN(CCOc1ccccc1)[*:1])[*:2]; Hyp = O=C(O)[C@@H]1C[C@@H](O)CN1; NMeF = CN[C@@H](Cc1ccccc1)C(=O)O; NMeGABA = CN(CCCC(=O)[*:2])[*:1]; NMeI = CC[C@H](C)[C@H](NC)C(=O)O; hPhe = N[C@@H](CCc1ccccc1)C(=O)O; NMeD = CN[C@@H](CC(=O)O)C(=O)O; NMeL = CN[C@@H](CC(C)C)C(=O)O; Propyl(2R-OH) = C[C@@H](O)C*; NMeV = CN[C@H](C(=O)O)C(C)C; NMeAbu = CC[C@H](NC)C(=O)O; Pip = O=C(O)[C@@H]1CCCCN1; NMeA = CN[C@@H](C)C(=O)O; Piperidide = C1CCN(*)CC1; dAbu = CC[C@@H](N)C(=O)O; Me2NCH2CH2 = CN(C)CC*; NBuGly = CCCCNCC(=O)O; Isopentyl = CC(C)CC*; Sar = CNCC(=O)O; tBu = CC(C)(C)*; CHF2 = FC(F)*

Test: Caco-2 membrane permeability, improved method as used in the following Examples (96-well, 20 to 24 h preincubation)
Type: in vitro ADME
Details: human, Caco-2, Caco-2
How it was run: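 Caco-2 monolayers were grown three weeks and preincubated 20–24 h at 37 °C with compound in DMEM+FaSSIF (1% DMSO) apically. The assay then used compound in FaSSIF/HBSS (1% DMSO, pH 6.0) apically and HBSS with 4% BSA (pH 7.4) basally. Basal samples were taken at 180 min for LC/MS, and Papp (cm/sec) was calculated.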

| SMILES | Papp A→B at 180 min [×10⁻⁶ cm/s] |
| --- | --- |
| CCCCN1CC(=O)N(C)[C@@H](C)C(=O)N[C@H](C(=O)N2CCCCC2)CC(=O)N(C)[C@@H](C(C)C)C(=O)N[C@@H](CC(C)C)C(=O)N(C)[C@@H](CC(C)C)C(=O)N(C)[C@@H](Cc2cccc(Cl)c2)C(=O)N[C@@H](Cc2ccc(N(C)C)nc2)C(=O)N(C)[C@@H](C)C(=O)N(C)[C@@H](CC(C)C)C(=O)N[C@@H]([C@@H](C)O)C1=O [pd399] ([NMeV]L[NMeL][NMePhe(3-Cl)][3Pal(6-NMe2)][NMeA][NMeL]T[NBuGly][NMeA]D-Piperidide; lactam N-11) | 1.5 |
| CC(C)C[C@H]1C(=O)N[C@@H](C(C)C)C(=O)N(C)[C@@H](Cc2ccccc2)C(=O)N(C)[C@@H](Cc2ccccc2)C(=O)N[C@@H](COC(C)(C)C)C(=O)N(C)[C@@H](CC(C)C)C(=O)N[C@@H](COC[C@@H](C)O)C(=O)N(C)[C@@H](CC(C)C)C(=O)N(C)[C@@H](CC(C)C)C(=O)N[C@H](C(=O)N2CCCCC2)CC(=O)N(C)CCCC(=O)N1C [pd493] ([NMeGABA][NMeL]V[NMeF][NMeF]S(tBu)[NMeL]S(Propyl(2R-OH))[NMeL][NMeL]D-Piperidide; lactam N-11) | 1.3 |
| CC[C@H](C)[C@@H]1NC(=O)[C@H](CC(C)C)N(C)C(=O)CN(C)C(=O)C[C@@H](C(=O)N2CCCCC2)NC(=O)[C@H](C(C)C)N(C)C(=O)[C@H](Cc2ccc(OC(F)F)cc2)NC(=O)[C@H](CC(C)C)N(C)C(=O)[C@H](Cc2ccccc2)N(C)C(=O)CN(C)C(=O)[C@H]([C@@H](C)O)NC(=O)[C@H](CC(C)C)N(C)C1=O [pd481] ([Sar][NMeL]I[NMeL]T[Sar][NMeF][NMeL]Y(CHF2)[NMeV]D-Piperidide; lactam N-11) | 3.8 |
| CC(C)C[C@H]1C(=O)N[C@H](C(=O)N2CCCCC2)CC(=O)N(C)[C@@H](C)C(=O)N[C@@H](C(C)C)C(=O)N(C)[C@@H](CC(C)C)C(=O)N(C)[C@@H](Cc2ccccc2)C(=O)N[C@@H](C)C(=O)N(C)[C@@H](C)C(=O)N(C)[C@@H](CC(C)C)C(=O)N[C@@H](CCc2ccccc2)C(=O)N(C)CC(=O)N1C [pd318] ([NMeA]V[NMeL][NMeF]A[NMeA][NMeL][hPhe][Sar][NMeL]D-Piperidide; lactam N-11) | 2.5 |
| CCO[C@@H]1C[C@H]2C(=O)N[C@@H]([C@@H](C)O)C(=O)N(C)[C@@H](CC(C)C)C(=O)N(C)[C@@H](CC(C)C)C(=O)N(C)[C@@H](CC(C)C)C(=O)N[C@H](C(=O)N3CCCCC3)CC(=O)N[C@H](CC(C)C)C(=O)N(C)[C@@H]([C@@H](C)CC)C(=O)N3CCC[C@H]3C(=O)N(C)[C@@H](CC(C)C)C(=O)N[C@@H](COC(C)(C)C)C(=O)N2C1 [pd385] ([dL][NMeI]P[NMeL]S(tBu)[Hyp](Et)T[NMeL][NMeL][NMeL]D-Piperidide; lactam N-11) | 3.4 |
| CCO[C@@H]1C[C@H]2C(=O)N[C@@H](Cc3ccccc3)C(=O)N(C)[C@@H](CC(C)C)C(=O)N[C@H](C(=O)N3CCCCC3)CC(=O)N[C@H](CC)C(=O)N(C)[C@@H](CC(C)C)C(=O)N[C@@H](COC(C)(C)C)C(=O)N(C)[C@@H](CC(C)C)C(=O)N[C@@H](CC(C)C)C(=O)N(C)[C@@H](CC(C)C)C(=O)N[C@@H]([C@@H](C)O)C(=O)N2C1 [pd375] ([dAbu][NMeL]S(tBu)[NMeL]L[NMeL]T[Hyp](Et)F[NMeL]D-Piperidide; lactam N-11) | 2.9 |
| CC[C@H](C)[C@H]1C(=O)N[C@@H](COC[C@@H](C)O)C(=O)N(C)CC(=O)N(C)[C@@H](CC(C)C)C(=O)N[C@H](C(=O)N2CCCCC2)CC(=O)N(C)[C@@H](C)C(=O)N[C@@H](CC(C)C)C(=O)N(C)[C@@H](CC(C)C)C(=O)N(C)[C@@H](Cc2ccccc2)C(=O)N[C@@H](CC(C)C)C(=O)N(C)[C@@H](Cc2ccccc2)C(=O)N1C [pd494] ([NMeA]L[NMeL][NMeF]L[NMeF][NMeI]S(Propyl(2R-OH))[Sar][NMeL]D-Piperidide; lactam N-11) | 5.2 |
| CCCCN1CC(=O)N(C)[C@@H](Cc2ccccc2)C(=O)N[C@@H](COCCN(C)C)C(=O)N(C)[C@@H](CC(C)C)C(=O)N[C@@H]([C@@H](C)O)C(=O)N(C)CC(=O)N(C)[C@@H](Cc2ccccc2)C(=O)N(C)[C@@H](CC)C(=O)N[C@@H](COCCC(C)C)C(=O)N(C)[C@@H](CC(C)C)C(=O)N[C@H](C(=O)N2CCCCC2)CC1=O [pd58] ([NBuGly][NMeF]S(Me2NCH2CH2)[NMeL]T[Sar][NMeF][NMeAbu]S(Isopentyl)[NMeL]D-Piperidide; lactam N-11) | 0.021 |
| CC[C@H](C)[C@@H]1NC(=O)[C@H](CC(C)C)N(C)C(=O)[C@@H](C)NC(=O)C[C@@H](C(=O)N2CCCCC2)NC(=O)[C@H](CC)N(C)C(=O)[C@H](Cc2ccccc2)N(C)C(=O)[C@H](COC(C)(C)C)NC(=O)[C@H](CC(C)C)N(C)C(=O)[C@H](CC)N(C)C(=O)[C@H]([C@@H](C)O)NC(=O)CN(CCOc2ccccc2)C1=O [pd423] ([dA][NMeL]I[X9]T[NMeAbu][NMeL]S(tBu)[NMeF][NMeAbu]D-Piperidide; lactam N-11) | 1 |

Same assay, conditions: human, Caco-2, Caco-2 (cm/sec)

| SMILES | Papp A→B at 180 min [×10⁻⁶ cm/s] |
| --- | --- |
| CC(C)C[C@H]1C(=O)N[C@@H](COC(C)(C)C)C(=O)N(C)[C@@H](Cc2ccccc2)C(=O)N(C)[C@@H](C)C(=O)N[C@H](C(=O)N2CCCCC2)CC(=O)N[C@H](C(C)C)C(=O)N(C)[C@@H](C(C)C)C(=O)N[C@@H](Cc2ccc(C(F)(F)F)cc2)C(=O)N(C)[C@@H](CC(C)C)C(=O)N[C@@H]([C@@H](C)O)C(=O)N(C)CC(=O)N1C [pd134] ([dV][NMeV][Phe(4-CF3)][NMeL]T[Sar][NMeL]S(tBu)[NMeF][NMeA]D-Piperidide; lactam N-11) | 2.6 |
| CC(C)C[C@H]1C(=O)N[C@H](C(=O)N2CCCCC2)CC(=O)N[C@H](C)C(=O)N(C)[C@@H](CC(C)C)C(=O)N[C@@H](COC(C)(C)C)C(=O)N(C)[C@@H](CC(C)C)C(=O)N2CCCC[C@H]2C(=O)N(C)[C@@H](C)C(=O)N[C@@H]([C@@H](C)O)C(=O)N(C)[C@@H](Cc2ccccc2)C(=O)N[C@@H](Cc2ccc(C(F)(F)F)cc2)C(=O)N1C [pd137] ([dA][NMeL]S(tBu)[NMeL][Pip][NMeA]T[NMeF][Phe(4-CF3)][NMeL]D-Piperidide; lactam N-11) | 2.2 |
| CC(C)C[C@H]1C(=O)N[C@@H](COC(C)(C)C)C(=O)N(C)[C@@H](Cc2ccccc2)C(=O)N(C)[C@@H](CC(C)C)C(=O)N(C)[C@H](C(=O)N2CCCCC2)CC(=O)N2CCC[C@H]2C(=O)N(C)[C@@H](Cc2cccc(Cl)c2)C(=O)N[C@@H](C(C)C)C(=O)N(C)[C@@H](C(C)C)C(=O)N[C@@H]([C@@H](C)O)C(=O)N(C)CC(=O)N1C [pd166] (P[NMePhe(3-Cl)]V[NMeV]T[Sar][NMeL]S(tBu)[NMeF][NMeL][NMeD]-Piperidide; lactam N-11) | 3.2 |
| CC(C)C[C@@H]1NC(=O)[C@H](Cc2ccccc2)N(C)C(=O)C[C@@H](C(=O)N2CCCCC2)NC(=O)[C@H](CC(C)C)N(C)C(=O)CN(C)C(=O)[C@H]([C@@H](C)O)NC(=O)[C@H](Cc2ccccc2)N(C)C(=O)[C@H](Cc2ccccc2)N(C)C(=O)[C@H](CC(C)C)NC(=O)[C@H](Cc2ccccc2)N(C)C(=O)[C@H](CC(C)C)N(C)C1=O [pd227] ([NMeF]L[NMeL][NMeF]L[NMeF][NMeF]T[Sar][NMeL]D-Piperidide; lactam N-11) | 0.61 |
| CC[C@H](C)[C@@H]1NC(=O)[C@H](CC(C)C)N(C)C(=O)CCCN(C)C(=O)C[C@@H](C(=O)N2CCCCC2)NC(=O)[C@H](CC(C)C)N(C)C(=O)[C@H](C)N(C)C(=O)[C@H](Cc2ccc(O)cc2)NC(=O)[C@H](CC(C)C)N(C)C(=O)[C@H](COC(C)(C)C)NC(=O)[C@H](CC(C)C)N(C)C(=O)[C@H](Cc2ccccc2)N(C)C1=O [pd129] ([NMeGABA][NMeL]I[NMeF][NMeL]S(tBu)[NMeL]Y[NMeA][NMeL]D-Piperidide; lactam N-11) | 0.16 |
| CC(C)C[C@@H]1NC(=O)CN(C)C(=O)[C@H](Cc2ccccc2)N(C)C(=O)[C@@H](C)NC(=O)C[C@@H](C(=O)N2CCCCC2)NC(=O)[C@H](Cc2ccccc2)N(C)C(=O)[C@H](Cc2ccccc2)N(C)C(=O)[C@H](COC(C)(C)C)NC(=O)[C@H](CC(C)C)N(C)C(=O)[C@H](Cc2ccccc2)NC(=O)[C@H]([C@@H](C)O)NC1=O [pd246] ([dA][NMeF][Sar]LTF[NMeL]S(tBu)[NMeF][NMeF]D-Piperidide; lactam N-11) | 0.014 |
| CC(C)C[C@@H]1NC(=O)C[C@@H](C(=O)N2CCCCC2)NC(=O)[C@H](CC(C)C)N(C)C(=O)[C@H](CC(C)C)N(C)C(=O)[C@H](Cc2ccc(C(F)(F)F)cc2)NC(=O)[C@H](CC(C)C)N(C)C(=O)[C@H]([C@@H](C)O)NC(=O)[C@H](CC(C)C)N(C)C(=O)[C@H](C)N(C)C1=O [pd153] (L[NMeA][NMeL]T[NMeL][Phe(4-CF3)][NMeL][NMeL]D-Piperidide; lactam N-9) | 1.4 |
| CC(C)C[C@H]1C(=O)N[C@H](C(=O)N2CCCCC2)CC(=O)N(C)[C@@H](C)C(=O)N[C@@H](Cc2ccc(O)c(F)c2)C(=O)N(C)[C@@H](CC(C)C)C(=O)N(C)[C@@H](CC(C)C)C(=O)N[C@@H](C(C)C)C(=O)N(C)[C@@H](Cc2ccccc2)C(=O)N(C)[C@@H](CC(C)C)C(=O)N[C@@H]([C@@H](C)O)C(=O)N(C)CC(=O)N1C [pd122] ([NMeA][Tyr(3-F)][NMeL][NMeL]V[NMeF][NMeL]T[Sar][NMeL]D-Piperidide; lactam N-11) | 0.46 |
| CC(C)C[C@@H]1NC(=O)[C@H](Cc2ccccc2)N(C)C(=O)[C@@H](C(C)C)NC(=O)C[C@@H](C(=O)N2CCCCC2)NC(=O)[C@H](CC(C)C)N(C)C(=O)[C@H](CC(C)C)N(C)C(=O)[C@H](Cc2ccc(O)c(F)c2)NC(=O)[C@H](CC(C)C)N(C)C(=O)CN(C)C(=O)[C@H]([C@@H](C)O)NC(=O)[C@H](CC(C)C)N(C)C1=O [pd128] ([dV][NMeF]L[NMeL]T[Sar][NMeL][Tyr(3-F)][NMeL][NMeL]D-Piperidide; lactam N-11) | 0.17 |
